{
  "source": "patent US20240024291A1",
  "about": "“Uses of Dihydroorotate Dehydrogenase Inhibitors” (University of Maryland, Baltimore, priority 2022, published 2024)",
  "key": {"[1]": {"system": "3691 glioblastoma neurosphere line", "assay": "gH2AX foci immunofluorescence (DNA damage)", "type": "cell-based, human", "details": "IC50 dose", "method": "The 913, 3691, 08-387, and 1079 glioblastoma neurosphere-derived cells (1×10^4) were treated with DMSO (control) or IC50 concentration of compound 1 and cultured in either normoxia or hypoxia for 48 hours. Cells were spun with a Milles Scientific Cyto-Tek Model 4325 cytocentrifuge slide centrifuge onto Superfrost slides (VWR-48311-703) at 1500 rpm for 5 minutes. Slides were rinsed briefly with Hanks Balanced Salt Solution (HBSS), fixed in 4% paraformaldehyde in PBS, and rinsed with HBSS twice to remove any residual fixative. Cells were permeabilized with PBS containing 0.1% Triton-X100 (PBST) for 15 minutes, then blocked for 1 hour with PBST with 5% BSA. The slides were incubated overnight at 4° C. with Phospho-H2AX antibody (see above), diluted 1:250 in PBST containing 5% BSA. Slides were rinsed three times with HBSS, then incubated for one hour at room temperature with donkey anti-mouse, Alexa488-conjugated, secondary antibody diluted 1:500 in PBST containing 5% BSA (see above). Cell nuclei were counterstained with DAPI (150 nM), and the slides were cover-slipped with Prolong antifade mounting media (Molecular Probes #P36961). Using a 40X objective, at least ten random high-power fields, per condition, were captured with a Nikon W-1 Spinning Disk confocal microscope through the University of Maryland Baltimore CIBR confocal facility. The number of yH2AX-positive foci per cell was counted using ImageJ (unige.ch/medecine/bioimaging/files/3714/1208/5964/CellCounting.pdf). Individual cells with ten or more foci were considered positive for significant DNA damage. At least 300 cells were analyzed in each sample.\nReduced de novo pyrimidine synthesis mediated by MCT4-depletion promoted an accumulation of DNA damage (29). To test and quantify the magnitude of compound 1 effect on DNA damage, the four compound 1 responsive GBM neurosphere lines 913, 3691, 08-387, and 1079 were cultured in normoxia (21% oxygen) and hypoxia (1% oxygen) with a model-specific IC50 dose of compound 1 for 48 hours followed by immunocytochemical analysis of the DNA-damage marker g-H2AX. Table 1 is a summary of IC50 (nM or mM) values established for the seven glioblastoma neurosphere lines"}, "[2]": {"system": "EGFRviii expressing 08-387 and 913 glioblastoma cells", "assay": "Gemcitabine sensitization assay (Alamar blue)", "type": "cell-based, human", "details": "varying dosages of gemcitabine and 100 nM of compound 1", "method": "Ten thousand 08-387 or 913 glioblastoma cells per well were seeded in a 96 well plate. […] Post 72 hr of treatment, cell viability was calculated on Alamar blue absorbance reading.\nTo further evaluate the potential role of EGFR in compound 1 resistance, the 913 and 08-387 neurosphere lines were transduced with lentiviruses encoding EGFRvIll or GFP (as control) and these neurospheres were challenged with a relatively high dose of 1 mM compound 1."}},
  "data": [
    {"smiles": "CCn1c(CO)nn(-c2cc(O[C@@H](C)C(F)(F)F)c(C(=O)Nc3c(F)cccc3Cl)cc2F)c1=O", "note": "[Compound 1, N-(2-chloro-6-fluorophenyl)-4-[4-ethyl-4,5-dihydro-3-(hydroxymethyl)-5-oxo-1H-1,2,4-triazol-1-yl]-5-fluoro-2-[(1S)-2,2,2-trifluoro-1-methylethoxy]-benzamide]", "values": [
      {"measurement": "g-H2AX positivity", "setting": "[1]; 3691, hypoxia, 48 hours (control 11.3%)", "result": 44.2, "unit": "%"},
      {"measurement": "g-H2AX positivity", "setting": "[1]; 3691, normoxia, 48 hours (control 9%)", "result": 46, "unit": "%"},
      {"measurement": "sensitization to gemcitabine", "setting": "[2]", "result": "sensitizes"}
    ]}
  ]
}
